# Measurements from the supplement of paper PMC10307832.
# Key:
# Test in all cases: relative viability (nuclei count vs DMSO), 5 days (fraction); higher = more cells survive
# [1] = compound: O=C(Nc1c[nH]nc1-c1nc2ccc(CN3CCOCC3)cc2[nH]1)NC1CC1 [AT9283] + CS(=O)(=O)N1CCN(Cc2cc3nc(-c4cccc5[nH]ncc45)nc(N4CCOCC4)c3s2)CC1 [Pictilisib] (partner 1 µM)
# Outline: (§1)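 Values are medians from duplicate plates. Each reflects relative viability, defined as the nuclei count of treated wells over that of vehicle wells. Lung cancer cell lines in 1536-well plates were pin-tool dosed one day after seeding with one drug alone or with a fixed anchor-drug dose plus five library-drug doses (not always all listed) in √10 steps, then fixed, stained and imaged at 4× after 5 days.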
# [2] = compound: C#Cc1cccc(Nc2ncnc3cc(OCCOC)c(OCCOC)cc23)c1 [Erlotinib] + CC1(C)CCC(c2ccc(Cl)cc2)=C(CN2CCN(c3ccc(C(=O)NS(=O)(=O)c4ccc(N[C@H](CCN5CCOCC5)CSc5ccccc5)c(S(=O)(=O)C(F)(F)F)c4)cc3)CC2)C1 [Navitoclax] (partner 0.5 µM)
# Outline: as §1
# [3] = compound: O=C(Nc1c[nH]nc1-c1nc2ccc(CN3CCOCC3)cc2[nH]1)NC1CC1 [AT9283] + C[C@@H](Oc1cc(-c2cnn(C3CCNCC3)c2)cnc1N)c1c(Cl)ccc(F)c1Cl [Crizotinib] (partner 1 µM)
# Outline: as §1
# [4] = compound: C#Cc1cccc(Nc2ncnc3cc(OCCOC)c(OCCOC)cc23)c1 [Erlotinib] + O=C(c1cc(Cc2n[nH]c(=O)c3ccccc23)ccc1F)N1CCN(C(=O)C2CC2)CC1 [Olaparib] (partner 8 µM)
# Outline: as §1
# [5] = compound: O=C(Nc1c[nH]nc1-c1nc2ccc(CN3CCOCC3)cc2[nH]1)NC1CC1 [AT9283] + CC(=O)c1c(C)c2cnc(Nc3ccc(N4CCNCC4)cn3)nc2n(C2CCCC2)c1=O [Palbociclib] (partner 0.5 µM)
# Outline: as §1
Cell Line,relative viability ([1]; first compound 0.003 µM),relative viability ([1]; first compound 0.03 µM),relative viability ([1]; first compound 0.09487 µM),relative viability ([1]; first compound 0.3 µM),relative viability ([2]; first compound 0.02 µM),relative viability ([2]; first compound 0.2 µM),relative viability ([2]; first compound 0.6325 µM),relative viability ([2]; first compound 2 µM),relative viability ([3]; first compound 0.003 µM),relative viability ([3]; first compound 0.03 µM),relative viability ([3]; first compound 0.09487 µM),relative viability ([3]; first compound 0.3 µM),relative viability ([4]; first compound 0.02 µM),relative viability ([4]; first compound 0.2 µM),relative viability ([4]; first compound 0.6325 µM),relative viability ([4]; first compound 2 µM),relative viability ([5]; first compound 0.003 µM),relative viability ([5]; first compound 0.03 µM),relative viability ([5]; first compound 0.09487 µM),relative viability ([5]; first compound 0.3 µM)
201T,0.642,0.731,0.476,0.396,1.22,1.2,1.2,1.17,0.996,1.02,0.478,0.468,0.846,0.85,0.788,0.774,0.352,0.362,0.265,0.279
A549,0.503,0.0938,0.0787,0.0772,1.1,1.26,1.33,1.06,0.717,0.0751,0.0711,0.0659,0.345,0.303,0.332,0.269,,,,
A-427,0.744,0.606,0.19,0.208,0.946,0.99,0.978,0.997,0.851,0.482,0.173,0.178,0.792,0.757,0.713,0.716,0.523,0.39,0.299,0.3
ABC-1,0.76,0.269,0.232,0.256,,,,,1.03,0.238,0.182,0.193,,1.01,1.03,0.769,0.664,0.381,0.295,0.325
BEN,0.501,0.555,0.188,0.224,0.0747,0.0625,0.0619,0.0646,0.818,0.663,0.207,0.236,1.3,1.06,1.14,1.03,0.458,0.456,0.412,0.356
CAL-12T,0.354,0.297,0.23,0.31,1.35,1.31,0.614,0.546,0.642,0.293,0.276,0.232,0.742,0.674,0.488,0.474,0.543,0.257,0.165,0.217
COR-L23,0.83,0.132,0.107,0.123,1.16,1.04,1.08,1,0.616,0.185,0.118,0.158,0.38,0.309,0.442,0.308,0.286,0.141,0.11,0.121
COR-L 105,0.405,0.273,0.279,0.28,0.809,0.531,0.364,0.283,0.73,0.326,0.274,0.237,0.638,0.603,0.47,0.294,0.392,0.327,0.328,0.286
Calu-6,0.932,0.242,0.227,0.194,0.919,0.803,0.781,0.759,0.742,0.253,0.238,0.291,0.602,0.546,0.552,0.519,,,,
ChaGo-K-1,0.357,0.511,0.179,0.233,0.68,0.981,1.25,0.777,0.973,0.416,0.343,0.387,0.426,0.466,0.391,0.402,0.931,0.761,0.295,0.212
EBC-1,0.368,0.158,0.149,0.124,0.404,0.466,0.363,0.34,0.212,0.178,0.172,0.181,0.724,0.75,0.675,,,,,
EKVX,0.419,0.411,0.199,0.142,0.939,0.693,0.289,0.184,0.878,0.663,0.371,0.216,0.839,0.476,0.385,0.183,0.387,0.368,0.274,0.179
EMC-BAC-2,0.537,0.375,0.228,0.235,1.13,1.04,0.974,0.906,0.67,0.36,0.163,0.151,0.569,0.547,0.492,0.46,0.471,0.376,0.289,0.247
EPLC-272H,0.318,0.26,0.199,0.165,1.04,1.05,1.1,0.589,0.951,0.856,0.431,0.14,0.704,0.711,1.01,0.575,0.306,0.355,0.276,0.241
H3255,0.448,0.461,0.213,0.148,0.449,0.147,0.0899,0.0743,0.909,0.77,0.471,0.146,0.661,0.469,0.387,0.242,0.337,0.316,0.323,0.284
HARA,0.373,0.425,0.0788,0.0662,1.16,1.08,0.88,0.964,1.1,0.4,0.105,0.13,1.1,0.591,1.02,0.354,0.265,0.23,0.135,0.141
HCC-15,0.686,0.494,0.136,0.138,0.735,0.68,0.736,0.617,0.765,0.478,0.139,0.129,0.701,0.753,0.715,0.626,0.65,0.681,0.187,0.164
HCC-44,0.598,0.627,0.151,0.123,0.992,0.866,1.05,0.868,0.775,0.634,0.457,0.211,0.94,0.984,1.05,0.947,0.992,1,0.557,0.698
HCC-78,0.211,0.218,0.123,0.151,0.731,0.503,0.744,0.621,0.328,0.272,0.213,0.189,0.877,0.634,,0.728,0.473,0.476,0.396,0.347

Cell Line,relative viability ([1]; first compound 0.003 µM),relative viability ([1]; first compound 0.03 µM),relative viability ([1]; first compound 0.09487 µM),relative viability ([1]; first compound 0.3 µM),relative viability ([2]; first compound 0.02 µM),relative viability ([2]; first compound 0.2 µM),relative viability ([2]; first compound 0.6325 µM),relative viability ([2]; first compound 2 µM),relative viability ([3]; first compound 0.003 µM),relative viability ([3]; first compound 0.03 µM),relative viability ([3]; first compound 0.09487 µM),relative viability ([3]; first compound 0.3 µM),relative viability ([4]; first compound 0.02 µM),relative viability ([4]; first compound 0.2 µM),relative viability ([4]; first compound 0.6325 µM),relative viability ([4]; first compound 2 µM),relative viability ([5]; first compound 0.003 µM),relative viability ([5]; first compound 0.03 µM),relative viability ([5]; first compound 0.09487 µM),relative viability ([5]; first compound 0.3 µM)
HCC-366,0.145,0.152,0.0339,0.0503,1.03,1.02,1.02,1.01,0.547,0.179,0.105,0.0338,0.331,0.359,0.353,0.242,0.373,0.309,0.157,0.101
HCC-827,0.822,0.775,0.457,0.504,0.465,0.167,0.162,0.172,0.91,0.808,0.41,0.283,0.243,0.147,0.149,0.139,0.478,0.428,0.272,0.174
HOP-62,0.645,0.351,0.19,0.146,1.08,,1.19,1.05,1.13,0.747,0.285,0.167,0.446,0.307,0.508,0.415,0.468,0.405,0.188,0.197
IA-LM,0.379,0.271,0.143,0.143,0.847,,1.01,0.802,0.846,0.261,0.0839,0.132,0.757,,,0.905,,,,
LCLC-103H,0.536,0.427,0.251,0.291,,,,,1.04,0.963,0.932,0.5,0.745,0.75,,0.707,0.362,0.494,0.423,0.371
NCI-H358,0.278,0.171,0.141,0.132,,,,,0.391,0.175,0.156,0.145,0.583,0.599,0.403,0.199,0.191,0.0774,0.0806,0.0739
NCI-H522,,,,,,,,,,,,,0.614,0.553,0.61,0.422,0.945,0.731,0.577,0.585
NCI-H596,0.391,0.415,0.412,0.373,1.02,0.751,1.06,0.813,0.897,0.974,0.966,0.707,0.776,0.635,0.674,0.586,,,,
NCI-H650,0.853,0.816,0.274,0.186,,,,,0.6,0.368,0.222,0.22,0.419,0.389,,0.34,0.314,0.334,0.209,0.122
NCI-H661,0.296,0.382,0.334,0.292,,,,,0.986,0.571,0.409,0.452,0.801,0.79,0.74,0.615,0.44,0.368,0.329,0.368
NCI-H1299,0.731,0.238,0.116,0.112,1.11,1.08,1.06,0.981,1.01,0.475,0.339,0.346,0.988,1.01,0.959,1,,,,
NCI-H1395,0.583,0.474,0.388,0.399,1.09,1.02,1.32,1.13,,,,,0.465,0.43,0.426,0.432,0.597,0.598,0.397,0.305
NCI-H1563,0.572,0.606,0.585,0.54,,,,,0.955,0.713,0.686,0.658,,,,,,,,
NCI-H1648,,,,,,,,,,,,,1.4,0.517,0.692,0.442,0.247,0.262,0.242,0.297
NCI-H1703,0.234,0.216,0.205,0.196,1.1,1.09,1.32,1.11,0.694,0.401,0.211,0.225,0.48,0.512,0.43,0.389,,,,
NCI-H1793,0.317,0.331,0.183,0.196,0.447,0.325,0.297,0.387,,,,,0.819,0.391,0.686,0.436,0.275,0.329,0.298,0.255
NCI-H2342,,,,,,,,,,,,,0.378,0.425,0.462,0.383,0.505,0.535,0.502,0.449
SW 900,,,,,,,,,,,,,0.907,0.846,0.84,,0.462,0.542,0.368,0.253
